Source: patent US7947854B2, “Bis-cationic compounds and use thereof” (The University of Sydney, priority 2003, dated 2011)
Where two headings read alike, the source gives them in different places. Marks after values point to notes of the source that are not given here.

What was measured:
[1] = test system: secreted phospholipase B (PLB activity); test: Radiometric assay, secreted PLB activity; type: biochemical, Cryptococcus neoformans H99; details: for PLB, percentage inhibition of activity: Secretory Cryptococcal H99 Phospholipase; for % Inhibition PLB, Secretory Enzyme: pH 4
In short: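 Secreted enzyme was taken from cell-free supernatant of Cryptococcus isolate H99 cells incubated 24 h at 37° C. Reactions at 37° C, pH 4.0 imidazole acetate, used 800 μM DPPC with [14C]-dipalmitoyl PC and 1 μg protein for 22 min. PLB was measured as radiolabelled PC loss by TLC, with inhibition expressed versus inhibitor-free control; compounds were tested at 25 and 250 μM, then 2.5 and 0.25 μM.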

[2] = test system: Candida albicans ATCC 10231; test: Antifungal susceptibility testing, microdilution MIC; type: cell-based; details: Candida albicans, ATCC10231
In short: (§1)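 Standard microdilution method, run in duplicate, using serial dilutions of cationic compounds.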

[3] = test system: Cryptococcus neoformans ATCC 90112; test: as above; type: cell-based; details: Cryptococcus neoformans, ATCC90112
In short: as §1

[4] = Table 6, no visible growth after 48 h at 35° C., read-out: MIC C. albicans ATCC 10231
[5] = Table 6, no visible growth after 72 h at 35° C., read-out: MIC C. neof. ATCC 90112
[6] = Table 7, read-out: MIC (μM) C. alb. (10231)
[7] = Table 7, read-out: MIC (μM) Crypto. (ATCC 90112)

Structure (SMILES)	PLB, percentage inhibition of activity ([1]; 0.25 μM)	PLB, percentage inhibition of activity ([1]; 2.5 μM)	PLB, percentage inhibition of activity ([1]; 25 μM)	PLB, percentage inhibition of activity ([1]; 250 μM)	MIC [2, 4]	MIC [3, 5]	PLB assay (% inhibition) ([1]; 0.25 μM)	% Inhibition PLB, Secretory Enzyme ([1]; 0.25 μM)	PLB assay (% inhibition) ([1]; 2.5 μM)	% Inhibition PLB, Secretory Enzyme ([1]; 2.5 μM)	PLB assay (% inhibition) ([1]; 25 μM)	% Inhibition PLB, Secretory Enzyme ([1]; 25 μM)	PLB assay (% inhibition) ([1]; 250 μM)	% Inhibition PLB, Secretory Enzyme ([1]; 250 μM)	MIC [2, 6]	MIC [3, 7]	PLB assay (% inhibition) ([1]; 6.7 μM)	PLB assay (% inhibition) ([1]; 12.5 μM)
CCCC[N+](CCCC)(CCCC)CCCCCCCCCCCC[N+](CCCC)(CCCC)CCCC [Compound 3, 1,12-bis(tributylammonium)do-decane dibromide]	20%	65%	80%	85%	11 µM	2.5 µM	–	–	–	–	–	–	–	–	–	–	–	–
CCCC[P+](CCCC)(CCCC)CCCCCCCCCCCC[P+](CCCC)(CCCC)CCCC [Compound 1, 1,12-bis(tributylphosphonium)dodecane dibromide]	0%	0%	35%	55%	8.8 µM	2.5 µM	0%	0%	0%	0%	35%	35.2* %	55%	55.0* %	8.8 µM	2.5 µM	–	–
CCCC[N+](CCCC)(CCCC)CCCCCCCCCCCC[N+](CCCC)(CCCC)CCCC [1,12-Bis-(tributylammonium)dodecane dichloride]	–	–	–	–	–	–	0%	–	6%	–	65%	–	85%	–	5.5 µM	2.5 µM	35%	56%
